In one test the target is T1, Full-length human PRMT3 (Homo sapiens, UniProt O60678).
T1 construct: GST-tagged PRMT3; made in house; host or cells: E. coli BL21(DE3) Gold (pGEX-KG)
The test is described as follows: PRMT3 biochemical assay (3H-SAM Flashplate, peptide substrate). An excerpt: General Materials. S-adenosylmethionine (SAM), S-adenosylhomocysteine (SAH), bicine, Tween20, dimethylsulfoxide (DMSO), bovine skin gelatin (BSG),), isopropyl-β-D-thiogalactopyranoside (IPTG), and Tris(2-carboxyethyl)phosphine hydrochloride solution (TCEP) were purchased from Sigma-Aldrich at the highest level of purity possible. ^3H-SAM was purchase from American Radiolabeled Chemicals with a specific activity of 80 Ci/mmol. 384-well streptavidin Flashplates were purchased from PerkinElmer.
Substrates. Peptide containing the classic RMT substrate motif was synthesized with an N-terminal linker-affinity tag motif and a C-terminal amide cap by 21st Century Biochemicals. The peptide was purified by high-performance liquid chromatography (HPLC) to greater than 95% purity and confirmed by liquid chromatography mass spectrometry (LC-MS). The sequence was Biot-Ahx-[…]-amide (SEQ ID NO.:11).
Molecular Biology: : Full-length human PRMT3 (NM_005788.3) isoform 1 transcript clone was amplified from an HEK 293 cDNA library and subcloned into pGEX-KG (GE Life Sciences). The resulting construct encodes an N-terminal GST tag and a thrombin cleavage sequence ([…] […] […] […]) (SEQ ID NO.:12) fused directly to Cys 2 of PRMT3.
Protein Expression. E. coli (BL21(DE3) Gold, Stratagene) made competent by the CaCl2 method were transformed with the PRMT3 construct and ampicillin selection. Protein over-expression was accomplished by growing the PRMT3 expressing E. coli clone and inducing expression with 0.3 mM IPTG at 16° C. The culture was grown for 12 hours, harvested by centrifugation, and stored at −80° C. for purification.
Protein Purification. […] GST-tagged PRMT3 eluted with 25-400 mM phosphate in buffer C. Protein was concentrated and buffer was exchanged to 20 mM Tris, 150 mM NaCl, 5% glycerol, 5 mM β-mercaptoethanol, pH7.8 by ultrafiltration. The purity of recovered protein was 70%.
General Procedure for PRMT3 Enzyme Assays on Peptide Substrates. The assays were all performed in a buffer consisting of 20 mM Bicine (pH=7.6), 1 mM TCEP, 0.005% BSG, and 0.002% Tween 20, prepared on the day of use. Compounds in 100% DMSO (1 ul) were spotted into a polypropylene 384-well V-bottom plates (Greiner) using a Platemate Plus outfitted with a 384-channel head (Thermo Scientific). DMSO (1 ul) was added to Columns 11, 12, 23, 24, rows A-H for the maximum signal control and 1 ul of SAH, a known product and inhibitor of PRMT3, was added to columns 11, 12, 23, 24, rows I-P for the minimum signal control. A cocktail (40 ul) containing the PRMT3 enzyme was added by Multidrop Combi (Thermo-Fisher). The compounds were allowed to incubate with PRMT3 for 30 min at room temperature, then a cocktail (10 ul) containing SAM and peptide was added to initiate the reaction (final volume=51 ul). The final concentrations of the components were as follows: PRMT3 was 0.5 nM, ^3H-SAM was 100 nM, non-radiolabeled SAM was 1.8 uM, peptide was 330 nM, SAH in the minimum signal control wells was 1 mM, and the DMSO concentration was 2%. The assays were stopped by the addition of potassium chloride (10 ul) to a final concentration of 100 mM. 50 ul of the reaction in the 384-well polypropylene plate was then transferred to a 384-well Flashplate and the biotinylated peptides were allowed to bind to the streptavidin surface for at least 1 hour before being washed once with 0.1% Tween20 in a Biotek ELx405 plate washer. The plates were then read in a PerkinElmer TopCount plate reader to measure the quantity of ^3H-labeled peptide bound to the Flashplate surface, measured as disintegrations per minute (dpm) or alternatively, referred to as counts per minute (cpm).
Where dpm=disintegrations per minute, cmpd=signal in assay well, and min and max are the respective minimum and maximum signal controls.
Where top and bottom are the normally allowed to float, but may be fixed at 100 or 0 respectively in a 3-parameter fit. […]

The subject of test [1] is mono-methyl arginine in RKO cells. Briefly: RKO methylation assay, In Cell Western for mono-methyl arginine and DNA content. The test is classed as cell-based. To be noted: Homo sapiens; In Cell Western, RKO cells, 72 hours, percent activation of mono-methyl arginine signal; read-out: EC30.

Some results are limits rather than exact numbers.

T1 sequence (O60678 with tags, fused parts or gaps): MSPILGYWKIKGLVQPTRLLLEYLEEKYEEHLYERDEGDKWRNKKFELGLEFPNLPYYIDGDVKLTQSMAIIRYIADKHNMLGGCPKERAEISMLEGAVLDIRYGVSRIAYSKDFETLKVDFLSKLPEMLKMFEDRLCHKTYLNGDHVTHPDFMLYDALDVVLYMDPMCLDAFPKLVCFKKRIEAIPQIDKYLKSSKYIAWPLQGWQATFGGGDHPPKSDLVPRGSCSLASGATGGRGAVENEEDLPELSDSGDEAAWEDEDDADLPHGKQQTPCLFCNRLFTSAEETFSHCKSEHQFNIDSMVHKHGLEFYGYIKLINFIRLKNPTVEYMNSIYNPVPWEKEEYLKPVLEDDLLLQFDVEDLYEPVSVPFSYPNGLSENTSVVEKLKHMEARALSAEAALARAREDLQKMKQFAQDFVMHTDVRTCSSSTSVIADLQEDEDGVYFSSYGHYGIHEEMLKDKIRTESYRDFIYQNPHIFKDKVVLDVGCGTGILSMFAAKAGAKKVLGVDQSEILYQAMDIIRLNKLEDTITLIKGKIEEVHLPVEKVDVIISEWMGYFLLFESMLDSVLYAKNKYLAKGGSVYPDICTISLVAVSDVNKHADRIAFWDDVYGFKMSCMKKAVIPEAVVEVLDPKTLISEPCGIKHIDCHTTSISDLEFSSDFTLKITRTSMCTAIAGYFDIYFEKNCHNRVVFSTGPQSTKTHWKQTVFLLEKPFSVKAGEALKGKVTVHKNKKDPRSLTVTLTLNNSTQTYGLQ

As usually defined, the IC50 is the concentration that gives 50% inhibition. High values mean a need for much substance, low ones inhibition by little substance. For orientation: EC30 means the point of the concentration-response curve where the effect stands at 30%. `CN(CCN)Cc1c[nH]nc1-c1ccccc1C#N` [Compound 140]: on Full-length human PRMT3, the IC50 fell in the range of 3.01 to 10 µM. Moreover, the EC30 in test [1] was above 12 µM.
In the same order, the values of `CN(CCN)Cc1c[nH]nc1-c1ccc(C(F)(F)F)c(F)c1` [Compound 141] are 3.01 to 10 µM and below 3 µM.
Compound `COc1cc(-c2n[nH]cc2CN(C)CCN)ccc1F` [Compound 142] yielded a half-inhibitory concentration (IC50) at Full-length human PRMT3 of 3.01 to 10 µM. The EC30 in test [1] is below 3 µM.
The matching figures for `CCN(CC)C(=O)c1ccc(-c2n[nH]cc2CN(C)CCN)cc1` [Compound 143]: 3.01 to 10 µM and above 12 µM.
In the same order, the values of `CC(C)Oc1ccc(-c2c[nH]nc2CN(C)CCN)cc1F` [Compound 144] are above 10 µM and below 3 µM.
The matching figures for `CN(CCN)Cc1n[nH]cc1-c1ccc(C2CCOCC2)cc1` [Compound 145]: 3.01 to 10 µM and below 3 µM.
On Full-length human PRMT3, `COc1ccc(-c2n[nH]cc2CN(C)CCN)c(Cl)c1` [Compound 146] came in with an IC50 of 3.01 to 10 µM. In test [1], the EC30 lay in the range of 3.01 to 12 µM.
As to `CN(CCN)Cc1c[nH]nc1-c1cc(C#N)ccc1Cl` [Compound 147], the IC50 against Full-length human PRMT3 is above 10 µM. Also, the EC30 in test [1] is above 12 µM.
The matching figures for `CN(CCN)Cc1c[nH]nc1-c1ccc(C(F)(F)F)cc1F` [Compound 148]: above 10 µM and 3.01 to 12 µM.
The matching figures for `CN(CCN)Cc1c[nH]nc1-c1cccc(N(C)C)c1` [Compound 149]: 3.01 to 10 µM and 3.01 to 12 µM.
In the same order, the values of `CCOC(=O)c1cccc(-c2n[nH]cc2CN(C)CCN)c1` [Compound 150] are above 10 µM and 3.01 to 12 µM.
In the case of `COc1cc(F)ccc1-c1n[nH]cc1CN(C)CCN` [Compound 151], the half-inhibitory concentration (IC50) against Full-length human PRMT3 is above 10 µM. Moreover, the EC30 in test [1] is 3.01 to 12 µM.
In the same order, the values of `Cc1cc(F)ccc1-c1n[nH]cc1CN(C)CCN` [Compound 152] are 3.01 to 10 µM and 3.01 to 12 µM.
The matching figures for `COc1ccc(-c2n[nH]cc2CN(C)CCN)cc1` [Compound 153]: 3.01 to 10 µM and below 3 µM.
In the same order, the values of `COc1ccc(-c2n[nH]cc2CN(C)CCN)c(C(F)(F)F)c1` [Compound 154] are above 10 µM and above 12 µM.
`COc1ccc(-c2n[nH]cc2CN(C)CCN)c(C)c1` [Compound 155] gave an IC50 on Full-length human PRMT3 of 3.01 to 10 µM. In test [1], the EC30 was in the range of 3.01 to 12 µM.
In the same order, the values of `CN(CCN)Cc1c[nH]nc1-c1cc(Cl)ccc1F` [Compound 156] are above 10 µM and 3.01 to 12 µM.
The matching figures for `COc1ccc(Cl)cc1-c1n[nH]cc1CN(C)CCN` [Compound 157]: above 10 µM and above 12 µM.
In the same order, the values of `Cc1ccc(C#N)cc1-c1n[nH]cc1CN(C)CCN` [Compound 158] are above 10 µM and above 12 µM.
`Cc1ccc(F)cc1-c1n[nH]cc1CN(C)CCN` [Compound 159] registered an IC50 at Full-length human PRMT3 above 10 µM. In test [1], the EC30 lay in the range of 3.01 to 12 µM.
As for `COc1ccc(F)cc1-c1n[nH]cc1CN(C)CCN` [Compound 160], the concentration for half-maximal inhibition (IC50) on Full-length human PRMT3 is above 10 µM. Moreover, the EC30 in test [1] was above 12 µM.
Compound `Cc1ccccc1-c1n[nH]cc1CN(C)CCN` [Compound 161] came in with an IC50 against Full-length human PRMT3 above 10 µM. Moreover, the EC30 in test [1] was above 12 µM.
The matching figures for `Cc1ccc(-c2n[nH]cc2CN(C)CCN)cc1` [Compound 162]: 3.01 to 10 µM and below 3 µM.
`CCN(C)C(=O)c1ccc(-c2n[nH]cc2CN(C)CCN)cc1` [Compound 163] returned an IC50 against Full-length human PRMT3 above 10 µM. Further, in test [1], the EC30 is above 12 µM.
The matching figures for `CC(C)CN(C)C(=O)c1ccc(-c2n[nH]cc2CN(C)CCN)cc1` [Compound 164]: above 10 µM and above 12 µM.
In the same order, the values of `CCOc1ccc(-c2n[nH]cc2CN(C)CCN)cc1` [Compound 166] are 3.01 to 10 µM and below 3 µM.
In the same order, the values of `COCCOc1ccc(-c2n[nH]cc2CN(C)CCN)cc1` [Compound 167] are 3.01 to 10 µM and below 3 µM.
At Full-length human PRMT3, `Cc1[nH]nc(-c2ccc(F)cc2)c1CN(C)CCN` [Compound 169] registered a half-maximal inhibitory concentration (IC50) above 10 µM. In addition, the EC30 in test [1] is above 12 µM.
In the same order, the values of `CC(C)Cc1ccc(-c2c[nH]nc2CN(C)CCN)cc1` [Compound 170] are 3.01 to 10 µM and below 3 µM.
The matching figures for `NCCN(CCO)Cc1c[nH]nc1-c1ccc(F)cc1` [Compound 171]: above 10 µM and above 12 µM.
In the same order, the values of `CN(CCN)Cc1c[nH]nc1-c1ccc(OCCN2CCOCC2)cc1` [Compound 172] are 3.01 to 10 µM and above 12 µM.

The values above are taken from patent US9346761B2, “Arginine methyltransferase inhibitors and uses thereof” (Epizyme, Inc., priority 2013, dated 2016).
